target: Xanthine oxidase (from bovine milk, Sigma) (Bos taurus (Bovine), UniProt P80457); test: Xanthine oxidase inhibitory activity; assay type: biochemical; conditions: 0.02 units/mL, xanthine 200 μM, 10 minutes at room temperature, absorbance at 290 nm
Description: (1) Preparation of Test Compounds
Test compounds were dissolved in DMSO (Wako) at 40 mM concentration and then diluted to intended concentrations with phosphate-buffered saline (PBS).
(2) Method for Measurement
Xanthine oxidase (from bovine milk, Sigma) was prepared with phosphate-buffered saline (PBS) at 0.02 units/mL, and then the solution was added to 96 well plates at 50 μL/well. In addition, test compounds diluted with PBS were added at 50 μL/well. Xanthine (Wako) at 200 μM prepared with PBS was added at 100 μL/well, and the reaction was conducted for 10 minutes at room temperature. Absorbance at 290 nm was measured using a microplate reader SpectraMax Plus 384 (Molecular device). The absorbance under a condition without xanthine is 0%, and control without test compounds is 100%. Fifty % inhibitory concentration of a test compound (IC50) was calculated (Tables 91 to 92). Ex. No in the table indicates Example number.

Sequence of Xanthine oxidase (from bovine milk, Sigma) (P80457 whole entry): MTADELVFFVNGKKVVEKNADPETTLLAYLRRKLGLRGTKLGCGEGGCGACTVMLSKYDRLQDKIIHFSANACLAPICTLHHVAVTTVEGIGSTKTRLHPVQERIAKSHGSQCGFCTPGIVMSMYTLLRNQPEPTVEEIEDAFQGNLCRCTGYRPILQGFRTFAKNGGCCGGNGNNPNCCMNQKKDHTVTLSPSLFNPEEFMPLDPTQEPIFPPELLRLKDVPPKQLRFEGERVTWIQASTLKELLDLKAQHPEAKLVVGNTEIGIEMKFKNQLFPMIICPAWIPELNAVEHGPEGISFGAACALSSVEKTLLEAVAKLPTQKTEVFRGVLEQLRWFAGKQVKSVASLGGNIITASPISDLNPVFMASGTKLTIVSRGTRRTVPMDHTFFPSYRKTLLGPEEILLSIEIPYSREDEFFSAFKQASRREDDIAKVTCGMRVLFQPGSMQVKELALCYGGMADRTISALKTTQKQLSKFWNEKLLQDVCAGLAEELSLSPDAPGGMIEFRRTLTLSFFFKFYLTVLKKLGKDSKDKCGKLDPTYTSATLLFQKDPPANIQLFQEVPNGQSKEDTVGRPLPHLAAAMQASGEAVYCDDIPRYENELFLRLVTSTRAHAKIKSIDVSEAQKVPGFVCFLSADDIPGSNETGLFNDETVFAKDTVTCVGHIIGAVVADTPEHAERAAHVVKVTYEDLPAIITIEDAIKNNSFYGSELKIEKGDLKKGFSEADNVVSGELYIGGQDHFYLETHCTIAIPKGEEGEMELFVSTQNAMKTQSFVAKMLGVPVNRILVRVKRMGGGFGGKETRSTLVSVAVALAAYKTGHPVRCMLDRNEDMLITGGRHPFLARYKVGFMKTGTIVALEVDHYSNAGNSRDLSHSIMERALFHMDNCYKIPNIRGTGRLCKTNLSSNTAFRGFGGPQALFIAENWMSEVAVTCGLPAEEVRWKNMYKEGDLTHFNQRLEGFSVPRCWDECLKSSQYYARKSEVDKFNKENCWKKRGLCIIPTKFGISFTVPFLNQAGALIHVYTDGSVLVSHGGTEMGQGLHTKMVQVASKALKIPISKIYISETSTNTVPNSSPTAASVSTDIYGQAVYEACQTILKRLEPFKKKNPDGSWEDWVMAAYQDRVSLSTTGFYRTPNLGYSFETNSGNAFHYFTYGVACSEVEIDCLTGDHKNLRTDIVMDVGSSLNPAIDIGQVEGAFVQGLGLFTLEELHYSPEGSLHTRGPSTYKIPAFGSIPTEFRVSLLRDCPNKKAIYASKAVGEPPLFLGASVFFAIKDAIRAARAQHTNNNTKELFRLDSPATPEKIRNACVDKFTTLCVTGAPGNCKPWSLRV

| SMILES | IC50 |
| --- | --- |
| CCCCc1c(C#N)cn(-c2ccc(C(=O)O)cc2)c1C [Example 2, 4-(3-Butyl-4-cyano-2-methylpyrrole-1-yl)benzoic acid] | 17.1 nM |
| N#Cc1cn(-c2ccc(C(=O)O)cc2)nc1OCc1ccccc1 [Example 7, 4-(3-Benzyloxy-4-cyanopyrazole-1-yl)benzoic acid] | 5.8 nM |
| N#Cc1cn(-c2ccc(C(=O)O)cc2)nc1-c1csc2ccccc12 [Example 8, 4-(3-Benzo[b]thiophene-3-yl-4-cyanopyrazole-1-yl)benzoic acid] | 7.5 nM |
| N#Cc1cn(-c2ccc(C(=O)O)c(O)c2)cc1-c1ccccc1O [Example 12, 4-[3-Cyano-4-(2-hydroxyphenyl)pyrrole-1-yl]-2-hydroxy benzoic acid] | 5.5 nM |
| COCCOc1ccccc1-c1cn(-c2ccc(C(=O)O)c(O)c2)cc1C#N [Example 15, 4-{3-Cyano-4-[2-(2-methoxyethoxy)phenyl]pyrrole-1-yl}-2-hydroxy benzoic acid] | 13.9 nM |
| N#Cc1cn(-c2ccc(C(=O)O)cc2)cc1OCc1ccccc1 [Example 18, 4-(3-Cyano-4-benzyloxypyrrole-1-yl)benzoic acid] | 7.1 nM |
| N#Cc1cn(-c2ccc(O)c(C(=O)O)c2)cc1-c1ccccc1 [Example 22, 5-(3-Cyano-4-phenylpyrrole-1-yl)-2-hydroxy-benzoic acid] | 120 nM |
| CC(=O)Nc1nn(-c2ccc(C(=O)O)cc2)cc1C#N [Example 27, 4-(3-Acetylamino-4-cyanopyrazole-1-yl)benzoic acid] | 7.1 nM |
| COCOc1ccccc1-c1cn(-c2ccc(C(=O)O)cc2)cc1C#N [Example 143] | 4.6 nM |
| COCOc1cccc(-c2cn(-c3ccc(C(=O)O)cc3)cc2C#N)c1 [Example 144] | 5.8 nM |
| COCOc1ccc(-c2cn(-c3ccc(C(=O)O)cc3)cc2C#N)cc1 [Example 145] | 4.9 nM |
| N#Cc1cn(-c2ccc(C(=O)O)cc2)cc1-c1ccccc1O [Example 146] | 4 nM |
| N#Cc1cn(-c2ccc(C(=O)O)cc2)cc1-c1cccc(O)c1 [Example 147] | 2.1 nM |
| N#Cc1cn(-c2ccc(C(=O)O)cc2)cc1-c1ccc(O)cc1 [Example 148] | 2.5 nM |
| N#Cc1cn(-c2ccc(C(=O)O)cc2)cc1-c1ccccc1OCCCO [Example 149] | 6 nM |
| N#Cc1cn(-c2ccc(C(=O)O)cc2)cc1-c1cccc(OCCCO)c1 [Example 150] | 5 nM |
| N#Cc1cn(-c2ccc(C(=O)O)cc2)cc1-c1ccccc1OCCO [Example 152] | 4 nM |
| N#Cc1cn(-c2ccc(C(=O)O)cc2)cc1-c1cccc(OCCO)c1 [Example 153] | 2.4 nM |
| N#Cc1cn(-c2ccc(C(=O)O)cc2)cc1-c1ccc(OCCO)cc1 [Example 154] | 4 nM |
| N#Cc1cn(-c2ccc(C(=O)O)cc2)cc1-c1ccccc1OCc1ccccc1 [Example 155] | 52.4 nM |

| SMILES | IC50 |
| --- | --- |
| N#Cc1cn(-c2ccc(C(=O)O)cc2)cc1-c1cccc(OCc2ccccc2)c1 [Example 156] | 52.9 nM |
| N#Cc1cn(-c2ccc(C(=O)O)cc2)cc1-c1ccc(OCc2ccccc2)cc1 [Example 157] | 33.8 nM |
| N#Cc1cn(-c2ccc(C(=O)O)cc2)cc1-c1ccccc1OCC(=O)O [Example 158] | 5.1 nM |
| N#Cc1cn(-c2ccc(C(=O)O)cc2)cc1-c1cccc(OCC(=O)O)c1 [Example 159] | 2.7 nM |
| N#Cc1cn(-c2ccc(C(=O)O)cc2)cc1-c1ccc(OCC(=O)O)cc1 [Example 160] | 2.1 nM |
| N#Cc1cn(-c2ccc(C(=O)O)cc2)cc1-c1ccccc1-c1ccccc1 [Example 161] | 31.9 nM |
| N#Cc1cn(-c2ccc(C(=O)O)cc2)cc1-c1cccc(-c2ccccc2)c1 [Example 162] | 55.1 nM |
| N#Cc1cn(-c2ccc(C(=O)O)cc2)cc1-c1ccc(-c2ccccc2)cc1 [Example 163] | 41.7 nM |
| N#Cc1cn(-c2ccc(C(=O)O)cc2)cc1-c1ccccc1Oc1ccccc1 [Example 164] | 33.2 nM |
| N#Cc1cn(-c2ccc(C(=O)O)cc2)cc1-c1cccc(Oc2ccccc2)c1 [Example 165] | 32.2 nM |
| N#Cc1cn(-c2ccc(C(=O)O)cc2)cc1-c1ccc(Oc2ccccc2)cc1 [Example 166] | 52.2 nM |
| Cc1ccccc1COc1ccccc1-c1cn(-c2ccc(C(=O)O)cc2)cc1C#N [Example 167] | 83.8 nM |
| Cc1cccc(COc2ccccc2-c2cn(-c3ccc(C(=O)O)cc3)cc2C#N)c1 [Example 168] | 70 nM |
| Cc1ccc(COc2ccccc2-c2cn(-c3ccc(C(=O)O)cc3)cc2C#N)cc1 [Example 169] | 56.8 nM |
| N#Cc1cn(-c2ccc(C(=O)O)cc2)cc1-c1ccccc1OCc1ccccc1F [Example 170] | 37.5 nM |
| N#Cc1cn(-c2ccc(C(=O)O)cc2)cc1-c1ccccc1OCc1cccc(F)c1 [Example 171] | 39.8 nM |
| N#Cc1cn(-c2ccc(C(=O)O)cc2)cc1-c1ccccc1OCc1ccc(F)cc1 [Example 172] | 49.1 nM |
| N#Cc1cn(-c2ccc(C(=O)O)cc2)cc1-c1cccc(OCc2cccs2)c1 [Example 173] | 41.4 nM |
| N#Cc1cn(-c2ccc(C(=O)O)cc2)cc1-c1cccc(OCc2ccsc2)c1 [Example 174] | 17.6 nM |
| N#Cc1cn(-c2ccc(C(=O)O)cc2)cc1-c1ccccc1OCc1cccs1 [Example 175] | 27.7 nM |

| SMILES | IC50 |
| --- | --- |
| N#Cc1cn(-c2ccc(C(=O)O)cc2)cc1-c1ccccc1OCc1ccsc1 [Example 176] | 13.7 nM |
| N#Cc1cn(-c2ccc(C(=O)O)cc2)cc1-c1ccccc1OCc1ccccc1Cl [Example 177] | 54.4 nM |
| N#Cc1cn(-c2ccc(C(=O)O)cc2)cc1-c1ccccc1OCc1ccc(Cl)cc1 [Example 179] | 143 nM |
| N#Cc1cn(-c2ccc(C(=O)O)cc2)cc1-c1ccccc1OCc1ccccc1C(F)(F)F [Example 180] | 255 nM |
| COc1ccccc1COc1ccccc1-c1cn(-c2ccc(C(=O)O)cc2)cc1C#N [Example 183] | 67.3 nM |
| COc1cccc(COc2ccccc2-c2cn(-c3ccc(C(=O)O)cc3)cc2C#N)c1 [Example 184] | 71.9 nM |
| Cc1ccc(COc2cccc(-c3cn(-c4ccc(C(=O)O)cc4)cc3C#N)c2)cc1 [Example 188] | 132 nM |
| N#Cc1cn(-c2ccc(C(=O)O)cc2)cc1-c1cccc(OCc2ccccc2F)c1 [Example 189] | 63.4 nM |
| N#Cc1cn(-c2ccc(C(=O)O)cc2)cc1-c1cccc(OCc2cccc(F)c2)c1 [Example 190] | 116 nM |
| N#Cc1cn(-c2ccc(C(=O)O)cc2)cc1-c1cccc(OCc2ccc(F)cc2)c1 [Example 191] | 90.3 nM |
| N#Cc1cn(-c2ccc(C(=O)O)cc2)cc1-c1cccc(OCc2cccc(Cl)c2)c1 [Example 193] | 70.4 nM |
| COc1cccc(COc2cccc(-c3cn(-c4ccc(C(=O)O)cc4)cc3C#N)c2)c1 [Example 198] | 111 nM |
| N#Cc1cn(-c2ccc(C(=O)O)cc2)cc1-c1ccccc1OCCCCO [Example 199] | 19.2 nM |
| N#Cc1cn(-c2ccc(C(=O)O)cc2)cc1-c1cccc(OCCCCO)c1 [Example 200] | 5.9 nM |
| COCCOc1ccccc1-c1cn(-c2ccc(C(=O)O)cc2)cc1C#N [Example 201] | 11.1 nM |
| COCCOc1cccc(-c2cn(-c3ccc(C(=O)O)cc3)cc2C#N)c1 [Example 202] | 6 nM |
| N#Cc1cn(-c2ccc(C(=O)O)cc2F)cc1-c1ccccc1 [Example 203] | 6.6 nM |
| N#Cc1cn(-c2ccc(C(=O)O)cc2)cc1/C=C/c1ccccc1 [Example 206] | 7.1 nM |

— patent US9023882B2, “5-membered nitrogen containing heterocyclic derivatives and pharmaceutical compositions comprising the same” (Kissei Pharmaceutical Co., Ltd., priority 2007, dated 2015)
